# Test results as given in US20060270862A1, “Analogs of discodermolide and dictyostatin-1, intermediates therefor and methods of synthesis thereof” (priority 2002, published 2006).
# Like-named read-outs stand apart in the source and are kept apart here.
# Key:
# 2008 (ovarian) = test: Cell growth inhibition (MTS), 2008; format: cell-based, human; settings: Homo sapiens
# Protocol: (§1) Cell Growth Inhibition[34] Cells were plated (500-2000 cells/well depending on the cell line) in 96-well microplates, allowed to attach and grow for 48 h, then treated with vehicle (4% DMSO, a concentration that allowed doubling times of 24 h or less) or test agent (50, 10, 2, 0.4 and 0.08 μM for the new agents; 0.001, 0.005, 0.010, 0.020 and 0.100 μM for paclitaxel and discodermolide) for the given times. One plate consisted of cells from each line used for a time zero cell number determination. The other plates in a given determination contained eight wells of control cells, eight wells of medium and each agent concentration tested in quadruplicate. Cell numbers were obtained spectrophotometrically (absorbance at 490 nm minus that at 630 nm) in a Dynamax plate reader after treatment with 3-(4,5-dimethylthiazol-2-yl)-5-(3-carboxymethoxyphenyl)-2-(4-sulfophenyl)-2H-tetrazolium (MTS) using phenazine methanesulfonate as the electron acceptor. After initial screening with the above 5-fold dilutions, fifty percent growth inhibitory concentration (GI50) values were determined for each agent by repeating the screen using 2-fold dilutions (five concentrations) centered on the initial estimated GI50 concentration, again in quadruplicate.
# [1] = system: paclitaxel binding site on tubulin; test: Paclitaxel binding site inhibition assay ([3H]paclitaxel displacement from microtubules); set-up: species or system bovine; settings: 4 μM test agent, 2 μM [3H]paclitaxel, microtubules from 2 μM tubulin and 20 μM dideoxyGTP
# Protocol: (§2) General. Tubulin without microtubule-associated proteins was prepared from fresh bovine brains[32] The normoisotopic and tritiated forms of paclitaxel and normoisotopic docetaxel were provided by the Drug Synthesis and Chemistry Branch, National Cancer Institute. (+)-Discodermolide was from Novartis Pharmaceutical Corporation. Ca^2+- and Mg^2+-free RPMI-1640 culture medium were from GIBCO/BRL-Life Technologies. Fetal bovine serum (FBS) was from Hyclone. Cell lines were obtained from American Type Culture Collection (Manassas, Va.).
# Paclitaxel binding site inhibition assay. A stock solution of [^3H]paclitaxel (26.8 μM, 16.2 Ci/mmol), obtained from the NCI, was prepared in 37% (v/v) DMSO. The test agents were prepared in 25% (v/v) DMSO-0.75 M monosodium glutamate (prepared from a 2M stock solution adjusted to pH 6.6 with HCl). The radiolabeled paclitaxel and test agents, as indicated in terms of final concentrations, were mixed in equal volumes and warmed to 37° C. A reaction mixture (50 μL) containing 0.75 M monosodium glutamate, 4.0 μM tubulin, and 40 μM ddGTP (a non-hydrolyzable analog of GTP) was prepared and incubated at 37° C. for 30 min to preform microtubules. An equivalent volume of drug mixture with [^3H]paclitaxel was added to preformed polymer and incubated for 30 min at 37° C. Bound [^3H]paclitaxel was separated from free drug by centrifugation of the reaction mixtures at 14000 rpm for 20 min at room temperature. Non-specific binding was determined by addition of a 12-fold excess of docetaxel. Radioactive counts from the supernatant (50 μL) were determined by scintillation spectrometry. Bound [^3H]paclitaxel was calculated from the following: total paclitaxel added to each reaction mixture minus the paclitaxel present in the supernatant (free drug). The % bound values were normalized to the control values with no inhibitor added.
# tubulin = format: biochemical, bovine; settings: for MT stabilizing activity (%): tubulin assembly induced by test agent at 10 μM vs. 10 μM paclitaxel (100%), single determinations at 30° C.
# Protocol: as §2
# Tubulin Polymerization[32] Tubulin assembly was followed in a Beckman-Coulter 7400 spectrophotometer, equipped with an electronic Peltier temperature controller, reading absorbance (turbidity) at 350 nm. Reaction mixtures (0.25 mL final volume) contained tubulin (final concentration 10 μM; 1 mg/mL), monosodium glutamate (0.8 M from a stock solution adjusted to pH 6.6 with HCl), DMSO (final volume 4% v/v), and differing concentrations of test agent where indicated. Reaction mixtures without test agent were cooled to 0° C. and added to cuvettes held at 0.25-0.5° C. in the spectrophotometer. Test agent in DMSO was then rapidly mixed in the reaction mixture. Each run contained one positive control (paclitaxel, 10 μM final concentration) and one negative control (DMSO only). Baselines were established at 0.25-2.5° C. and temperature was rapidly raised to 30° C. (in approximately 1 min) and held there for 20 min.
# MDA-MB231 (breast) = test: Cell growth inhibition (MTS), MDA-MB231; format: cell-based, human; settings: Homo sapiens
# Protocol: as §1
# PC3 (prostate) = test: Cell growth inhibition (MTS), PC3; format: cell-based; settings: Homo sapiens, read-out: GI50 PC3 (prostate)
# Protocol: as §1
smiles,measurement,setting,value
"C=C/C=C\[C@H](C)[C@H](OC(N)=O)[C@@H](C)[C@H](O)[C@@H](C)C/C(C)=C\[C@H](C)[C@@H](O)[C@@H](C)/C=C\[C@@H](O)C[C@@H]1OC(=O)[C@H](C)[C@@H](O)[C@H]1C [discodermolide, (+)-discodermolide]",GI50,"2008 (ovarian); 72 h, read-out: GI50 2008 (ovarian)",72 ± 5 nM
same,GI50,"2008 (ovarian); 72 h, read-out: GI50 2008 (ovary)",72 ± 5 nM
same,Displacement of [3H]paclitaxel (%),[1],64 ± 2%
same,Displacement of [3H]paclitaxel (%),"[1]; N = 6, means ± SD",64 ± 2%
same,microtubule assembly compared with paclitaxel (in words),"tubulin; FIG. 6A, equivalent assembly at lower concentrations and temperatures",superior to paclitaxel
same,"properties of the induced polymer: speed of induction, resistance to cold-induced disassembly (in words)","tubulin; FIGS. 6A, 6C, 6D, analogs at somewhat lower potencies than discodermolide",more resistant to cold-induced disassembly
same,MT stabilizing activity (%),tubulin,>100%
same,GI50,"MDA-MB231 (breast); MDA-MB-231, 72 h, read-out: GI50 MDA-MB231 (breast)",16 ± 3 nM
same,GI50,"MDA-MB231 (breast); MDA-MB-231, 72 h, read-out: GI50 MDA-MB-231 (breast)",16 ± 3 nM
same,GI50,PC3 (prostate); 72 h,67 ± 4 nM
"CC(=O)O[C@H]1C(=O)[C@@]2(C)[C@H]([C@H](OC(=O)c3ccccc3)[C@]3(O)C[C@H](OC(=O)[C@H](O)[C@@H](NC(=O)c4ccccc4)c4ccccc4)C(C)=C1C3(C)C)[C@]1(OC(C)=O)CO[C@@H]1C[C@@H]2O [paclitaxel, reference compound]",GI50,"2008 (ovarian); 72 h continuous exposure, mean ± SD, N = 4, read-out: GI50 2008 (ovarian)",9.2 ± 1.6 nM
same,Displacement of [3H]paclitaxel (%),[1],37 ± 1%
same,MT stabilizing activity (%),tubulin,100%
same,GI50,"MDA-MB231 (breast); MDA-MB-231, 72 h continuous exposure, mean ± SD, N = 4, read-out: GI50 MDA-MB231 (breast)",2.4 ± 1.6 nM
same,GI50,"PC3 (prostate); 72 h continuous exposure, mean ± SD, N = 4",15 ± 2 nM
